The text below walks through data of PubChem BioAssay AID330 (DTP/NCI, 2004).

“And” between values parts separate entries of the source, which are not always exact repeats. Equal values may be shown once. Inconclusive results and toxic doses are left out.

The assay relates to P388 leukemia ip, CD2F1 mice, survival T/C. Put plainly: NCI In Vivo Anticancer Drug Screen. Data for tumor model P388 Leukemia (intraperitoneal) in CD2F1 (CDF1) mice. To be noted: endpoint: median survival time, higher = longer survival. The procedure, abridged:
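Mice carrying the transplanted tumor received test compound or vehicle. Survival was recorded in each group, and the value is the treated-group measurement divided by that of the vehicle-treated control group.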

The mark [1] stands for this setting: dose: 60.0 mg/kg/injection, schedule: Q01DX005 (ip), vehicle: saline with Tween-80.
[2] abbreviates: dose: 120.0 mg/kg/injection, schedule: Q01DX005 (ip), vehicle: saline with Tween-80.
Setting [3] is: dose: 240.0 mg/kg/injection, schedule: Q01DX005 (ip), vehicle: saline with Tween-80.
Where [4] appears, read: dose: 50.0 mg/kg/injection, schedule: Q01DX009 (ip), vehicle: Klucel (hydroxypropylcellulose) (HPC).
Setting [5] is: dose: 100.0 mg/kg/injection, schedule: Q01DX009 (ip), vehicle: Klucel (hydroxypropylcellulose) (HPC).
Setting [6] is: dose: 50.0 mg/kg/injection, schedule: Q01DX005 (ip), vehicle: saline with Tween-80.
Where [7] appears, read: dose: 100.0 mg/kg/injection, schedule: Q01DX005 (ip), vehicle: saline with Tween-80.
The mark [8] stands for this setting: dose: 200.0 mg/kg/injection, schedule: Q01DX005 (ip), vehicle: saline with Tween-80.
Setting [9] is: dose: 12.5 mg/kg/injection, schedule: Q01DX009 (ip), vehicle: Klucel (hydroxypropylcellulose) (HPC).
Where [10] appears, read: dose: 25.0 mg/kg/injection, schedule: Q01DX009 (ip), vehicle: Klucel (hydroxypropylcellulose) (HPC).
[11] abbreviates: dose: 50.0 mg/kg/injection, schedule: Q01DX005 (ip), vehicle: Klucel (hydroxypropylcellulose) (HPC).
Setting [12] is: dose: 100.0 mg/kg/injection, schedule: Q01DX005 (ip), vehicle: Klucel (hydroxypropylcellulose) (HPC).
The mark [13] stands for this setting: dose: 200.0 mg/kg/injection, schedule: Q01DX005 (ip), vehicle: Klucel (hydroxypropylcellulose) (HPC).

Regarding `NC(Cc1cc([N+](=O)[O-])ccc1CN(CCCl)CCCl)C(=O)O` (stereo not given), the T/C (dose: 0.06 mg/kg/injection, schedule: Q01DX009 (ip), vehicle: Klucel (hydroxypropylcellulose) (HPC)) was 104 % of control; the T/C (dose: 0.11 mg/kg/injection, schedule: Q04DX003 (ip), vehicle: Klucel (hydroxypropylcellulose) (HPC)) is 110 % of control; the T/C (dose: 0.12 mg/kg/injection, schedule: Q01DX009 (ip), vehicle: Klucel (hydroxypropylcellulose) (HPC)) was 120 % of control; the T/C (dose: 0.23 mg/kg/injection, schedule: Q04DX003 (ip), vehicle: Klucel (hydroxypropylcellulose) (HPC)) was 104 % of control; the T/C (dose: 0.25 mg/kg/injection, schedule: Q01DX009 (ip), vehicle: Klucel (hydroxypropylcellulose) (HPC)) is 117 % of control; the T/C (dose: 0.47 mg/kg/injection, schedule: Q04DX003 (ip), vehicle: Klucel (hydroxypropylcellulose) (HPC)) was 120 % of control. Besides, the T/C by setting is: (dose: 1.88 mg/kg/injection, schedule: Q04DX003 (ip), vehicle: Klucel (hydroxypropylcellulose) (HPC)) 189 % of control; (dose: 2.0 mg/kg/injection, schedule: Q01DX009 (ip), vehicle: Klucel (hydroxypropylcellulose) (HPC)) 105 % of control; (dose: 3.75 mg/kg/injection, schedule: Q04DX003 (ip), vehicle: Klucel (hydroxypropylcellulose) (HPC)) 119 % of control; (dose: 4.0 mg/kg/injection, schedule: Q01DX009 (ip), vehicle: Klucel (hydroxypropylcellulose) (HPC)) 93 % of control; (dose: 6.25 mg/kg/injection, schedule: Q01DX001 (ip), vehicle: Klucel (hydroxypropylcellulose) (HPC)) 93 % of control; (dose: 7.5 mg/kg/injection, schedule: Q04DX003 (ip), vehicle: Klucel (hydroxypropylcellulose) (HPC)) 99 % of control. For the same compound, the T/C reads like this: (dose: 8.0 mg/kg/injection, schedule: Q01DX009 (ip), vehicle: Klucel (hydroxypropylcellulose) (HPC)) 90 % of control; (dose: 15.0 mg/kg/injection, schedule: Q04DX003 (ip), vehicle: Klucel (hydroxypropylcellulose) (HPC)) 91 % of control; (dose: 25.0 mg/kg/injection, schedule: Q01DX001 (ip), vehicle: Klucel (hydroxypropylcellulose) (HPC)) 90 % of control.

Turning to `Cc1cc(C)cc(-n2cccc2C(=O)O)c1`, the T/C is 93 % of control under setting [1], 99 % of control under setting [2] and 100 % of control under setting [3].

Consider `Cc1c(-c2ccccc2)n[nH]c1-c1[nH]nc(-c2ccccc2)c1C`, for which the T/C by setting is: (dose: 60.0 mg/kg/injection, schedule: Q01DX005 (ip), vehicle: Klucel (hydroxypropylcellulose) (HPC)) 93 % of control; (dose: 120.0 mg/kg/injection, schedule: Q01DX005 (ip), vehicle: Klucel (hydroxypropylcellulose) (HPC)) 94 % of control; (dose: 240.0 mg/kg/injection, schedule: Q01DX005 (ip), vehicle: Klucel (hydroxypropylcellulose) (HPC)) 93 % of control.

For the compound `NC(=S)N/N=C/C=C/c1ccccc1`, the T/C is, setting by setting: (dose: 25.0 mg/kg/injection, schedule: Q04DX002 (ip), vehicle: Klucel (hydroxypropylcellulose) (HPC)) 96 % of control; (dose: 50.0 mg/kg/injection, schedule: Q04DX002 (ip), vehicle: Klucel (hydroxypropylcellulose) (HPC)) 105 % of control; (dose: 100.0 mg/kg/injection, schedule: Q04DX002 (ip), vehicle: Klucel (hydroxypropylcellulose) (HPC)) 101 % of control.

As for `CCCCCNC(=O)c1csc(-c2csc(CCNC(C)=O)n2)n1`, the T/C was 100 % of control (dose: 12.5 mg/kg/injection, schedule: Q01DX009 (ip), vehicle: distilled water + Tween-80); 103 % of control (dose: 25.0 mg/kg/injection, schedule: Q01DX009 (ip), vehicle: distilled water + Tween-80); 92 % of control (dose: 50.0 mg/kg/injection, schedule: Q01DX009 (ip), vehicle: distilled water + Tween-80); 91 % of control (dose: 100.0 mg/kg/injection, schedule: Q01DX009 (ip), vehicle: distilled water + Tween-80).

As for `NNC1=Nc2ccccc2N=C2CCSCC21` (stereo not given), the T/C under setting [4] is 97 % of control; the T/C under setting [5] is 112 % of control; the T/C (dose: 200.0 mg/kg/injection, schedule: Q01DX009 (ip), vehicle: Klucel (hydroxypropylcellulose) (HPC)) is 108 % of control.

As to `CCCCc1c(O)c(N=NC(=N)N)c2ccccc2c1O`, the T/C by setting is: under setting [6], 100 % of control; under setting [7], 101 % of control; under setting [8], 99 % of control.

For `C(=C/c1cc2ccc(C3=NCCN3)cc2o1)/c1cc2cc(C3=NCCN3)ccc2[nH]1`, where the note is “dose: 200.0 mg/kg/injection, schedule: Q04DX003 (ip), vehicle: suspension in saline”, the T/C was 113 % of control.

`CN(C)N=Nc1cccc(C(N)=O)c1`: the T/C was 100 % of control (dose: 6.25 mg/kg/injection, schedule: Q01DX009 (ip), vehicle: Klucel (hydroxypropylcellulose) (HPC)); 110 % of control under setting [9]; 116 % of control under setting [10]; 112 % of control under setting [4]; 93 % of control under setting [5].

Consider `Cc1ccc(-n2cc(-c3ccc(Cl)cc3)c3c(N)ncnc32)cc1`, for which the T/C runs as follows: under setting [1], 105 % of control; under setting [2], 104 % of control; under setting [3], 88 % of control.

With `S=C(S)NC1CCN(Cc2ccccc2)CC1`, the T/C under setting [11] was 107 % of control, the T/C under setting [12] is 102 % of control and the T/C under setting [13] was 96 % of control.

Consider `C1CNC(SCC2CC3CC2C2OC32)=N1` (stereo not given), for which the T/C by setting is: under setting [11], 98 % of control; under setting [12], 101 % of control.

Take `S=C(Nc1ccc(Cl)cc1)Nc1ncccn1`: the T/C by setting is: under setting [9], 98 % of control; under setting [10], 103 % of control; under setting [4], 100 % of control and 97 % of control.

For `CC(C)=CCC(OC(=O)C=C(C)C)c1cc(O)c2c(O)ccc(O)c2c1O.[Co]` (stereo not given), the T/C reads like this: (dose: 100.0 mg/kg/injection, schedule: Q01DX001 (ip), vehicle: saline with Tween-80) 103 % of control; (dose: 200.0 mg/kg/injection, schedule: Q01DX001 (ip), vehicle: saline with Tween-80) 101 % of control; (dose: 400.0 mg/kg/injection, schedule: Q01DX001 (ip), vehicle: saline with Tween-80) 113 % of control.

With `CSc1nc(-c2cccs2)cc(C(F)(F)F)n1`, the T/C reads like this: (dose: 50.0 mg/kg/injection, schedule: Q04DX003 (ip), vehicle: gum acacia) 105 % of control; (dose: 100.0 mg/kg/injection, schedule: Q04DX003 (ip), vehicle: gum acacia) 104 % of control; (dose: 200.0 mg/kg/injection, schedule: Q04DX003 (ip), vehicle: gum acacia) 109 % of control; (dose: 400.0 mg/kg/injection, schedule: Q04DX003 (ip), vehicle: gum acacia) 96 % of control.

Regarding `CCCCOCc1c(-c2ccccc2)sc2ccccc2c1=O`, the T/C reads like this: under setting [6], 97 % of control; under setting [7], 102 % of control; under setting [8], 100 % of control.

With `Cc1cc2cc3c4c(nn5cnnc5c4c2o1)-c1ccccc1CC3`, the T/C reads like this: under setting [11], 101 % of control; under setting [12], 104 % of control; under setting [13], 98 % of control.

In the case of `CNS(=O)(=O)c1ccc(Cl)cc1`, the T/C is, setting by setting: (dose: 3.13 mg/kg/injection, schedule: Q01DX009 (ip), vehicle: saline) 94 % of control; (dose: 6.25 mg/kg/injection, schedule: Q01DX009 (ip), vehicle: saline) 99 % of control; (dose: 12.5 mg/kg/injection, schedule: Q01DX009 (ip), vehicle: saline) 98 % of control; (dose: 25.0 mg/kg/injection, schedule: Q01DX009 (ip), vehicle: saline) 98 % of control.

Consider `O=C(O)C(=O)O.O=C(O)C(=O)O.[Co+2].[NH-]CCC[NH-]`, for which the T/C (dose: 12.5 mg/kg/injection, schedule: Q04DX002 (ip), vehicle: saline) was 99 % of control.

Regarding `NNC(=O)c1cnn(-c2ccc(N(CCO)CCO)nn2)c1N`, the T/C reads like this: (dose: 75.0 mg/kg/injection, schedule: Q01DX005 (ip), vehicle: other) 107 % of control; (dose: 150.0 mg/kg/injection, schedule: Q01DX005 (ip), vehicle: other) 107 % of control; (dose: 250.0 mg/kg/injection, schedule: Q01DX005 (oral), vehicle: water) 104 % of control; (dose: 300.0 mg/kg/injection, schedule: Q01DX005 (ip), vehicle: other) 93 % of control; (dose: 500.0 mg/kg/injection, schedule: Q01DX005 (oral), vehicle: water) 110 % of control; (dose: 1000.0 mg/kg/injection, schedule: Q01DX005 (oral), vehicle: water) 103 % of control.
